Experimental findings from ChEMBL document CHEMBL1201862, “PubChem BioAssay data set” (2004) are described below.

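Protocol summary: plate cells (96-well), add compound at 5 concentrations, incubate 48 h, interpolate endpoints linearly. GI50 marks 50% less growth.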 Activity calls are given as the source filed them. Cut-off read from the data, not from the text of the source: active = GI50 up to about 1.1 µM and inactive = higher. Bounds are passed on as bounds.

What all share (experiment): inhibition of tumour cell growth, NCI panel, 48 h
Assay [1] concerns MDA-MB-435.
The subject of assay [2] is U-251.
Assay [3] relates to NCI-H226.
In assay [4] the test system is A549.
Assay [5] concerns NCI-H522.
The subject of assay [6] is COLO 205.
In assay [7] the test system is MDA-MB-231.
For assay [8], the system named is SK-OV-3.
Assay [9] has as its system HOP-92.
The subject of assay [10] is MCF7.
The subject of assay [11] is OVCAR-5.
For assay [12], the system named is UACC-62.
The subject of assay [13] is HT-29.
The test system of assay [14] is HOP-62.
The test system of assay [15] is SNB-19.
In assay [16] the test system is T47D.
Assay [17] concerns TK-10.
Assay [18] concerns K562.
The subject of assay [19] is Hs-578T.
Assay [20] relates to DU-145.

With `CCCCCCCCCCCCCCCC(=O)OCC(C[As](=O)(O)O)OC(=O)CCCCCCCCCCCCCCC` (stereo unspecified), the GI50 is > 100 µM (inactive) in [1]; > 65.6 µM (inactive) in assay [2]; > 74.8 µM (inactive) in assay [3]; > 100 µM (inactive) in assay [4]; > 100 µM (inactive) in [5]; > 100 µM (inactive) in assay [6]. The GI50 is > 100 µM (inactive) in assay [7]; > 58.2 µM (inactive) in [8]; > 72.6 µM (inactive) in [9]; > 100 µM (inactive) in assay [10]; > 100 µM (inactive) in assay [11]; > 100 µM (inactive) in [12]. Also, the GI50 is > 100 µM (inactive) in assay [13]; > 70.3 µM (inactive) in [14]; > 56.8 µM (inactive) in assay [15]; > 100 µM (inactive) in assay [16]; > 66.5 µM (inactive) in assay [17]; > 100 µM (inactive) in assay [18]. Moreover, the GI50 in assay [19] was 58.5 µM (inactive).
In the case of `O=S(=O)(N=[Se](=O)(c1ccccc1)c1ccccc1)c1ccccc1`, the GI50 in [1], in [2], in [3], in assay [5], in assay [6] and in assay [7] was > 100 µM (inactive) each time. In addition, the GI50 in assay [8] is > 100 µM (inactive); in assay [9] it was > 100 µM (inactive); in assay [10], 88.3 µM (inactive); in assay [11] it was > 100 µM (inactive); in assay [13] it was > 100 µM (inactive); in assay [14], > 100 µM (inactive). For the same molecule, the GI50 in [15] was 60 µM (inactive); in [16], > 100 µM (inactive); in assay [17] it was > 100 µM (inactive); in assay [18], > 100 µM (inactive); in [19], > 100 µM (inactive).
Turning to `CCCCCCCCC#CCCCCCCC(F)C(=O)O` (stereo unspecified), the GI50 in [1], in assay [2], in [3], in assay [4], in assay [5] and in assay [20] was > 100 µM (inactive) throughout. Further, the GI50 in assay [6], in [8], in assay [9], in assay [11], in assay [13] and in assay [14] was > 100 µM (inactive) throughout. The GI50 is > 100 µM (inactive) in assay [15]; > 100 µM (inactive) in assay [16]; > 100 µM (inactive) in [17]; 40 µM (inactive) in assay [18]; > 100 µM (inactive) in assay [19].
Regarding `Cc1ccsc1/C=N/Nc1cc(C)c2cccc(C)c2n1`, the GI50 in assay [1], in [2], in assay [3], in assay [4], in assay [20] and in assay [6] was > 100 µM (inactive) each time. The GI50 was 84.5 µM (inactive) in assay [8]; > 100 µM (inactive) in [9]; 2.75 µM (inactive) in [10]; > 100 µM (inactive) in assay [11]; > 100 µM (inactive) in assay [12]; 4.14 µM (inactive) in [13]. In addition, the GI50 in assay [14], in assay [15], in [16], in assay [17] and in assay [19] was > 100 µM (inactive) each time.
Take `CC(=O)OC12c3ccccc3C(c3ccccc31)C1C(=O)N(Nc3ccccc3)C(=O)C12` (stereo unspecified): the GI50 in assay [2], in assay [3], in assay [4], in [20], in [6] and in assay [7] was > 100 µM (inactive) in each case. Besides, the GI50 in [8] is > 100 µM (inactive); in assay [10], > 100 µM (inactive); in [11], > 100 µM (inactive); in [12] it was > 10 µM (inactive); in [13], > 100 µM (inactive); in assay [14] it was > 100 µM (inactive). The GI50 was > 100 µM (inactive) in [15]; > 100 µM (inactive) in assay [16]; > 100 µM (inactive) in assay [17]; > 100 µM (inactive) in assay [18]; 23.1 µM (inactive) in assay [19].
In the case of `CCc1c2c(nc3ccc(O)cc13)-c1cc3c(c(=O)n1C2)COC(=O)[C@]3(O)CC` [7-ETHYL-10-HYDROXYCAMPTOTHECIN], the GI50 in [2] is < 0.001 µM (active); in assay [3] it was < 0.001 µM (active); in [4], 0.0525 µM (active); in [20] it was < 0.001 µM (active); in assay [6] it was 0.0556 µM (active); in [7], 0.00344 µM (active). In addition, the GI50 was 0.01 µM (active) in assay [10]; 0.00472 µM (active) in assay [11]; < 0.001 µM (active) in assay [12]; < 0.001 µM (active) in assay [14]; < 0.001 µM (active) in assay [15]; < 0.001 µM (active) in [16]. For the same molecule, the GI50 is 0.0933 µM (active) in assay [17] and 0.0791 µM (active) in [19].
Take `COCC1OC(OC2OCC3OC4(OCC(O)(C(C)OC)C5OCOC54)OC3C2OC)C(OC)C(O)C1OC1OC(C)C(OC)C(OC2OC(C)C3OC4(CC(O)C(OC5CC(OC6CC(C)([N+](=O)[O-])C(OC)C(C)O6)C(OC(=O)c6c(C)c(Cl)c(O)c(Cl)c6OC)C(C)O5)C(C)O4)OC3(C)C2O)C1O` (stereo unspecified): the GI50 in assay [1], in assay [2], in assay [3], in [4], in [5] and in [20] was > 100 µM (inactive) each time. The GI50 in assay [6], in assay [7], in assay [8], in [9], in assay [11] and in [12] was > 100 µM (inactive) in each case. For the same molecule, the GI50 in assay [13], in [14], in [15], in [16], in [17] and in assay [18] was > 100 µM (inactive) throughout. In addition, the GI50 in [19] was > 100 µM (inactive).
On to `c1csc(-c2csc(-c3ccsc3)c2)c1`, for which the GI50 is > 100 µM (inactive) in [1]; > 100 µM (inactive) in assay [2]; > 57.5 µM (inactive) in assay [3]; 99.5 µM (inactive) in assay [4]; 61.5 µM (inactive) in assay [5]; > 100 µM (inactive) in [6]. In addition, the GI50 was > 100 µM (inactive) in assay [7]; > 100 µM (inactive) in [8]; > 100 µM (inactive) in assay [9]; > 46.3 µM (inactive) in assay [10]; > 100 µM (inactive) in [11]; > 100 µM (inactive) in assay [12]. Moreover, the GI50 in assay [13] is > 100 µM (inactive); in assay [14], > 100 µM (inactive); in assay [15], > 100 µM (inactive); in assay [16], > 45.1 µM (inactive); in assay [17] it was > 100 µM (inactive); in assay [18], > 100 µM (inactive). Moreover, the GI50 in assay [19] is > 100 µM (inactive).
Turning to `CC1OC(OC2CC(O)(C(=O)CO)Cc3c(O)c4c(c(O)c32)C(=O)c2ccccc2C4=O)CC(N)C1O` (stereo unspecified), the GI50 was 0.156 µM (active) in [1]; < 0.01 µM (active) in assay [2]; < 0.01 µM (active) in assay [3]; < 0.01 µM (active) in [4]; < 0.0183 µM (active) in assay [5]; 0.0101 µM (active) in assay [20]. The GI50 in assay [6] was < 0.017 µM (active); in [7] it was 0.431 µM (active); in assay [8], 0.0109 µM (active); in [9], < 0.0338 µM (active); in [11], 0.0242 µM (active); in assay [12] it was 0.0101 µM (active). Also, the GI50 is < 0.0135 µM (active) in assay [13]; < 0.01 µM (active) in assay [14]; < 0.01 µM (active) in assay [15]; < 0.01 µM (active) in assay [16]; 0.0559 µM (active) in assay [17]; < 0.0118 µM (active) in [18]. The GI50 in assay [19] is 0.0206 µM (active).
For the molecule `c1c[nH]c(-c2ccc(-c3ccc[nH]3)c3nsnc23)c1`, the GI50 in assay [1] is > 48.1 µM (inactive); in assay [2], 42.1 µM (inactive); in assay [3], > 100 µM (inactive); in assay [4], > 47.5 µM (inactive); in [5] it was 53.6 µM (inactive); in assay [20], > 56.8 µM (inactive). In addition, the GI50 in assay [6] is 1.53 µM (inactive); in assay [8] it was > 68.1 µM (inactive); in [9], 31.8 µM (inactive); in assay [10], 0.0877 µM (active); in [11], 1.14 µM (inactive); in assay [12], > 47.5 µM (inactive). Moreover, the GI50 was > 26.3 µM (inactive) in assay [13]; 28.5 µM (inactive) in [14]; > 67.6 µM (inactive) in assay [15]; 0.0336 µM (active) in assay [16]; 0.182 µM (active) in [17]; > 26.8 µM (inactive) in [18]. The GI50 in assay [19] was 35.9 µM (inactive).
With `O=C(O[C@H](/C=C/c1ccccc1)P1(=O)N(Cc2ccccc2)[C@@H]2CCCC[C@H]2N1Cc1ccccc1)c1ccccc1`, the GI50 in assay [1] was 3.63 µM (inactive); in assay [2] it was 3.26 µM (inactive); in assay [3], 2.61 µM (inactive); in assay [4], 3.66 µM (inactive); in [5], 3.95 µM (inactive); in assay [6], 2.17 µM (inactive). Moreover, the GI50 is 3.16 µM (inactive) in [7]; 5.41 µM (inactive) in assay [8]; 1.91 µM (inactive) in [9]; 3.63 µM (inactive) in [10]; 4.17 µM (inactive) in [11]; 4.86 µM (inactive) in assay [12]. Moreover, the GI50 in assay [13] was 3.45 µM (inactive); in assay [14], 5.38 µM (inactive); in assay [15] it was 6.5 µM (inactive); in [16] it was 0.875 µM (active); in assay [17], 38.9 µM (inactive); in [18], 3.24 µM (inactive). In assay [19], the GI50 was 6.93 µM (inactive).
